# Measurements from patent publication US20240166693A1, “METHODS AND COMPOUNDS FOR MODULATING MYOTONIC DYSTROPY 1” (Design Therapeutics, Inc., priority 2020, published 2024).
# System: Myotonic Dystrophy 1 affected patient fibroblasts (Coriell GM04602; 1600 CTG repeats)
# Assay: DM1 foci reduction assay (CAG10-Cy3 FISH, average foci per nucleus)
# Assay type: cell-based
# Conditions: Homo sapiens, Fibroblast, 48 h, read-out: Foci Reduction in Fibroblast EC50, 48 h (nM)
# Protocol: DM1 foci reduction assay methods: Myotonic Dystrophy 1 affected patient fibroblasts (Coriell GM04602; 1600 CTG repeats) and wild type fibroblasts (Coriell GM07492; control line) were cultured separately in Gibco DMEM (1×)+4.5 g/L D-Glucose+L-Glutamine+110 mg/L Sodium Pyruvate, supplemented with 10% FBS and 1× Pen/Strep. Cells were maintained in incubator at 37° C. and 5% CO2 with media refresh every 48-72 hours.
# At 90-95% confluency, both cell lines were harvested using Trypl-E then pelleted at 500×g for 5 minutes and were resuspended in media. DM1 fibroblasts were seeded in Agilent 96 well black plates at a density of 5,000 cells/well in 200 μL media; 8 wells were reserved for control fibroblasts. Plates were returned to incubator for 24 hours at 37° C. and 5% CO2.
# Compounds were diluted from 10 mM stock to 1 mM in DMSO, then diluted once more to 6 μM (2× concentration) in media. Media was removed from all plates and cells were replenished with 100 μL media. Cells were treated in 8-point dose response, 1:3 fold dilution, 3 μM top dose via addition of 100 μL of 6 μM (2× concentration) compound to the 100 μL media with cells. Plates were returned to incubator for 48-hour time-course experiment at 37° C. and 5% CO2.
# Following treatment, compounds were removed, and plates were washed with PBS, then cells were fixed in 75 μL 4% PFA solution for 20 minutes at room temperature. Plates were washed twice with PBS and twice with cold 70% ethanol before permeabilization with 250 μL cold 70% ethanol for 24-72 hours at −20° C.
# After permeabilization, plates were washed once with a 30% formamide and 2×SSC buffer and rehydrated in that buffer for 15 minutes at room temperature. Cells were incubated overnight at 37° C. in 75 μL of a hybridization solution containing 30% formamide, 2×SSC, 25 mg/mL dextran sulfate, 2.5 mg/mL BSA, 0.2 μg/mL Herring sperm DNA, 2 mM vanadyl-ribonucleoside complex, and 5 nM CAG10-Cy3 probe.
# Plates were washed once with 30% formamide in 2×SSC buffer, then twice with the buffer for 30 minutes at 37° C., 300 RPM in an incubating plate shaker. Cells were stained with 75 μL of 2.5 μg/mL DAPI in PBS for 5 minutes at room temperature. Plates were then washed twice with PBS and stored in 250 μL PBS. Plates were sealed with adhesive foil and wiped down with 70% ethanol.
# Cells were imaged on a Cytation5 with a 20× objective sampling from 4 areas of each well. Nuclei were captured under DAPI channel and foci under RFP channel. Plates were analyzed on an average foci per nucleus per well basis.
row,SMILES,EC50
1,CC(C)C[C@H](NC(=O)[C@H](C)NC(=O)[C@H](Cc1ccccc1)NC(=O)c1ccc(C(C)(C)C)cc1)C(=O)N[C@@H](CCCCN(C)C1CC2CCC1C2)C(=O)N[C@@H](CO)C(=O)NCCOCCOCCNC(=O)CCNC(=O)c1nc(NC(=O)c2cc(NC(=O)CCNC(=O)c3nc(NC(=O)CCCNC(=O)c4cc(NC(=O)c5nc(NC(=O)CCNC(=O)c6cc(NC(=O)c7nccn7C)cn6C)cn5C)cn4C)cn3C)cn2C)cn1C (stereo partly shown) [Compound 77],< 100 nM
2,CCN(CC)CCCC[C@H](NC(=O)[C@H](CC(C)C)NC(=O)[C@H](C)NC(=O)[C@H](Cc1ccccc1)NC(=O)c1ccc(C(C)(C)C)cc1)C(=O)N[C@@H](CO)C(=O)NCCOCCOCCNC(=O)c1cc(NC(=O)c2cc(NC(=O)c3nc(NC(=O)c4cc(NC(=O)[C@@H](N)CCNC(=O)c5nc(NC(=O)c6cc(NC(=O)c7cc(NC(=O)c8nccn8C)cn7C)cn6C)cn5C)cn4C)cn3C)cn2C)cn1C [Compound 78],> 500 nM
3,CCN(CC)CCCC[C@H](NC(=O)[C@H](CC(C)C)NC(=O)[C@H](C)NC(=O)[C@H](Cc1ccccc1)NC(=O)c1ccc(C(C)(C)C)cc1)C(=O)N[C@@H](CO)C(=O)NCCOCCOCCNC(=O)c1cc(NC(=O)c2nc(NC(=O)c3cc(NC(=O)[C@@H](N)CCNC(=O)c4nc(NC(=O)c5cc(NC(=O)c6cc(NC(=O)c7nccn7C)cn6C)cn5C)cn4C)cn3C)cn2C)cn1C [Compound 79],> 500 nM
4,CCN(CC)CCCC[C@H](NC(=O)COCCOCCNC(=O)c1ccc(C(C)(C)C)cc1)C(=O)N[C@@H](CO)C(=O)NCCOCCOCCNC(=O)CCNC(=O)c1nc(NC(=O)c2cc(NC(=O)CCNC(=O)c3nc(NC(=O)CCCNC(=O)c4cc(NC(=O)c5nc(NC(=O)CCNC(=O)c6cc(NC(=O)c7nccn7C)cn6C)cn5C)cn4C)cn3C)cn2C)cn1C [Compound 81],< 100 nM
5,CCN(CC)CCCC[C@H](NC(=O)[C@H](CC(C)C)NC(=O)[C@H](C)NC(=O)[C@H](Cc1ccccc1)NC(=O)c1ccc(C(C)(C)C)cc1)C(=O)N[C@@H](CO)C(=O)NCCOCCOCCNC(=O)c1cc(NC(=O)c2cc(NC(=O)c3nc(NC(=O)c4cc(NC(=O)[C@@H](N)CCNC(=O)c5nc(NC(=O)CCNC(=O)c6cc(NC(=O)c7nccn7C)cn6C)cn5C)cn4C)cn3C)cn2C)cn1C [Compound 82],> 500 nM
6,CC(C)C[C@H](NC(=O)[C@H](C)NC(=O)[C@H](Cc1ccccc1)NC(=O)c1ccc(C(C)(C)C)cc1)C(=O)N[C@@H](CCCCN(C)C1CC2CCC1C2)C(=O)N[C@@H](CO)C(=O)NCCOCCOCCNC(=O)c1cc(NC(=O)c2cc(NC(=O)c3nc(NC(=O)c4cc(NC(=O)[C@@H](N)CCNC(=O)c5nc(NC(=O)CCNC(=O)c6cc(NC(=O)c7nccn7C)cn6C)cn5C)cn4C)cn3C)cn2C)cn1C (stereo partly shown) [Compound 83],> 500 nM
7,CC(C)C[C@H](NC(=O)[C@H](C)NC(=O)[C@H](Cc1ccccc1)NC(=O)c1ccc(C(C)(C)C)cc1)C(=O)N[C@@H](CCCCN(C)C1CC2CCC1C2)C(=O)N[C@@H](CO)C(=O)NCCOCCOCCOCCOCCOCCNC(=O)c1cc(NC(=O)c2cc(NC(=O)c3nc(NC(=O)c4cc(NC(=O)[C@@H](N)CCNC(=O)c5nc(NC(=O)CCNC(=O)c6cc(NC(=O)c7nccn7C)cn6C)cn5C)cn4C)cn3C)cn2C)cn1C (stereo partly shown) [Compound 84],> 500 nM
8,CCN(CC)CCCC[C@H](NC(=O)[C@H](CC(C)C)NC(=O)[C@H](C)NC(=O)[C@H](Cc1ccccc1)NC(=O)c1ccc(C)cc1)C(=O)N[C@@H](CO)C(=O)NCCOCCOCCOCCOCCOCCNC(=O)CCNC(=O)c1nc(NC(=O)c2cc(NC(=O)CCNC(=O)c3nc(NC(=O)CCCNC(=O)c4cc(NC(=O)c5nc(NC(=O)CCNC(=O)c6cc(NC(=O)c7nccn7C)cn6C)cn5C)cn4C)cn3C)cn2C)cn1C [Compound 85],< 100 nM
9,CCN(CC)CCCC[C@H](NC(=O)[C@H](CC(C)C)NC(=O)[C@H](C)NC(=O)[C@H](Cc1ccccc1)NC(=O)c1ccccc1C)C(=O)N[C@@H](CO)C(=O)NCCOCCOCCOCCOCCOCCNC(=O)CCNC(=O)c1nc(NC(=O)c2cc(NC(=O)CCNC(=O)c3nc(NC(=O)CCCNC(=O)c4cc(NC(=O)c5nc(NC(=O)CCNC(=O)c6cc(NC(=O)c7nccn7C)cn6C)cn5C)cn4C)cn3C)cn2C)cn1C [Compound 86],< 100 nM
10,CCN(CC)CCCC[C@H](NC(=O)[C@H](CC(C)C)NC(=O)[C@H](C)NC(=O)[C@H](Cc1ccccc1)NC(=O)c1ccccc1)C(=O)N[C@@H](CO)C(=O)NCCOCCOCCOCCOCCOCCNC(=O)CCNC(=O)c1nc(NC(=O)c2cc(NC(=O)CCNC(=O)c3nc(NC(=O)CCCNC(=O)c4cc(NC(=O)c5nc(NC(=O)CCNC(=O)c6cc(NC(=O)c7nccn7C)cn6C)cn5C)cn4C)cn3C)cn2C)cn1C [Compound 87],< 100 nM
11,CCN(CC)CCCC[C@H](NC(=O)[C@H](CC(C)C)NC(=O)[C@H](C)NC(=O)[C@H](Cc1ccccc1)NC(=O)c1ccccc1C)C(=O)N[C@@H](CO)C(=O)NCCOCCOCCOCCOCCOCCNC(=O)c1cc(NC(=O)c2cc(NC(=O)c3nc(NC(=O)c4cc(NC(=O)[C@@H](N)CCNC(=O)c5nc(NC(=O)CCNC(=O)c6cc(NC(=O)c7nccn7C)cn6C)cn5C)cn4C)cn3C)cn2C)cn1C [Compound 89],> 500 nM
12,CCN(CC)CCCC[C@H](NC(=O)[C@H](CC(C)C)NC(=O)[C@H](C)NC(=O)[C@H](Cc1ccccc1)NC(=O)c1ccccc1)C(=O)N[C@@H](CO)C(=O)NCCOCCOCCOCCOCCOCCNC(=O)c1cc(NC(=O)c2cc(NC(=O)c3nc(NC(=O)c4cc(NC(=O)[C@@H](N)CCNC(=O)c5nc(NC(=O)CCNC(=O)c6cc(NC(=O)c7nccn7C)cn6C)cn5C)cn4C)cn3C)cn2C)cn1C [Compound 90],> 500 nM
13,CCN(CC)CCCC[C@H](NC(=O)[C@H](CC(C)C)NC(=O)[C@H](C)NC(=O)[C@H](Cc1ccccc1)NC(=O)c1ccc(C(C)(C)C)cc1)C(=O)N[C@@H](CO)C(=O)Nc1ccc(C#CC#CCNC(=O)CCNC(=O)c2nc(NC(=O)c3cc(NC(=O)CCNC(=O)c4nc(NC(=O)CCCNC(=O)c5cc(NC(=O)c6nc(NC(=O)CCNC(=O)c7cc(NC(=O)c8nccn8C)cn7C)cn6C)cn5C)cn4C)cn3C)cn2C)cc1 [Compound 96],< 100 nM
14,CCN(CC)CCCC[C@H](NC(=O)[C@H](CC(C)C)NC(=O)[C@H](C)NC(=O)[C@H](Cc1ccccc1)NC(=O)c1ccc(C(C)(C)C)cc1)C(=O)N[C@@H](CO)C(=O)NCCOCCNCC#CC#Cc1ccc(NC(=O)CCNC(=O)c2nc(NC(=O)c3cc(NC(=O)CCNC(=O)c4nc(NC(=O)CCCNC(=O)c5cc(NC(=O)c6nc(NC(=O)CCNC(=O)c7cc(NC(=O)c8nccn8C)cn7C)cn6C)cn5C)cn4C)cn3C)cn2C)cc1 [Compound 98],> 500 nM

# Same assay, conditions: Homo sapiens, Fibroblast; DM1 fibroblasts, 48 h treatment, 8-point dose response, 3 μM top dose; read-out: Foci Reduction in Fibroblast EC50, 48 h
row,SMILES,EC50
1,COc1c(OCCOCCOCCOCCOCCOCCNC(=O)CCNC(=O)c2nc(NC(=O)c3cc(NC(=O)CCNC(=O)c4nc(NC(=O)CCCNC(=O)c5cc(NC(=O)c6nc(NC(=O)CCNC(=O)c7cc(NC(=O)c8nccn8C)cn7C)cn6C)cn5C)cn4C)cn3C)cn2C)cccc1C(=O)N1CCN(C(=O)COc2cc(C)cc(C)c2)CC1 [Compound 91],> 500 nM
2,COc1c(OCCOCCOCCOCCOCCOCCNC(=O)CCNC(=O)c2nc(NC(=O)c3cc(NC(=O)CCNC(=O)c4nc(NC(=O)CCCNC(=O)c5cc(NC(=O)c6nc(NC(=O)CCNC(=O)c7cc(NC(=O)c8nccn8C)cn7C)cn6C)cn5C)cn4C)cn3C)cn2C)cccc1C(=O)N1CCN(C(=O)COc2cc(C)c(N)c(C)c2)CC1 [Compound 92],> 500 nM
3,COc1c(OCCOCCOCCOCCOCCOCCNC(=O)CCNC(=O)c2nc(NC(=O)c3cc(NC(=O)CCNC(=O)c4nc(NC(=O)CCCNC(=O)c5cc(NC(=O)c6nc(NC(=O)CCNC(=O)c7cc(NC(=O)c8nccn8C)cn7C)cn6C)cn5C)cn4C)cn3C)cn2C)cccc1C(=O)N1CCN(C(=O)COc2cc(C)c(NC(N)=O)c(C)c2)CC1 [Compound 93],> 500 nM
4,COc1c(OCCOCCOCCOCCOCCOCCNC(=O)CCNC(=O)c2nc(NC(=O)c3cc(NC(=O)CCNC(=O)c4nc(NC(=O)CCCNC(=O)c5cc(NC(=O)c6nc(NC(=O)CCNC(=O)c7cc(NC(=O)c8nccn8C)cn7C)cn6C)cn5C)cn4C)cn3C)cn2C)cccc1C(=O)N1CCN(C(=O)COc2cccc(C)c2)CC1 [Compound 94],> 500 nM
5,COc1c(OCCOCCOCCOCCOCCOCCNC(=O)CCNC(=O)c2nc(NC(=O)c3cc(NC(=O)CCNC(=O)c4nc(NC(=O)CCCNC(=O)c5cc(NC(=O)c6nc(NC(=O)CCNC(=O)c7cc(NC(=O)c8nccn8C)cn7C)cn6C)cn5C)cn4C)cn3C)cn2C)cccc1C(=O)N1CCN(C(=O)COc2ccc(NC(N)=O)c(C)c2)CC1 [Compound 95],> 500 nM
